# Measured values from article PMC6838683, “Discovery of Human Signaling Systems: Pairing Peptides to G Protein-Coupled Receptors” (Cell, 2019).
# Positions of bridges follow the written chain, without caps; N, C: chain ends. Residues, ends and D or L forms follow the SMILES beside them.
# Experiments:
# HA-OGR1 (GPR68) = target: T1, HA-OGR1 (GPR68) (Homo sapiens, UniProt Q15743); assay: Ca2+ mobilization assay (Fluo-4); assay type: cell-based; conditions: GPR68, data from resynthesized peptide, mean, SEM and n; for Emax: read-out: Emax, Ca2+ mobilization (% iono); for EC50: read-out: pEC50, Ca2+ mobilization (% iono) (converted)
# T1 construct: HA; expressed in transfected cells
# T1 sequence (Q15743 whole entry): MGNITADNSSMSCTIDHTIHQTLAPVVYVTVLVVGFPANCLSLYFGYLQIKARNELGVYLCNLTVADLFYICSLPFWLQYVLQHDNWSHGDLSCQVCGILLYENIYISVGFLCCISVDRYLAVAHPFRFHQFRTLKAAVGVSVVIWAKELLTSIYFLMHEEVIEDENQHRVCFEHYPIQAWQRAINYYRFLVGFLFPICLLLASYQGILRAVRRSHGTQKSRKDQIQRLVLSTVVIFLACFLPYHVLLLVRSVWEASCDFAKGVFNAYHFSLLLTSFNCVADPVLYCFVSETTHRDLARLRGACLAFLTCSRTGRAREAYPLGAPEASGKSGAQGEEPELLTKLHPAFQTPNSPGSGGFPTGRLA
# Method: Peptide-dependent Ca^2+ mobilization responses were measured in HEK293 stable cell lines (HA-OGR1 (GPR68) and vector pcDNA) ([Saxena et al., 2012]) that were seeded in 96-well plates (1 × 10^5 cells/well) and cultured at 37°C with 5% CO2 to near confluence in DMEM with 10% FBS (Corning). Six hours prior to assay, medium was changed to pH 8.0 or pH 7.4 HAM’s F12 Nutrient Mixture (GIBCO) without FBS and transferred to a 37°C incubator without CO2. One hour prior to stimulation, cells were incubated in pH 8.0 or pH 7.4 HBSS with Ca^2+ and Mg^2+ (GIBCO), supplemented with 15 mM HEPES, 2 μM Fluo-4 AM (Invitrogen) and 1.5 mM probenecid ([…] to prevent Fluo-4 efflux) as described previously ([Pera et al., 2018]). Indicated peptides were pipetted using an automated system and emission signal was recorded at 525 nm after excitation at 485 nm using Flex Station III (Molecular Devices). Ca^2+ mobilization responses were determined by subtracting basal fluorescence from the net peak of agonist-induced fluorescence. Ionomycin (1 μM) was used to calculate the maximum Ca^2+ signal to normalize peptide-mediated responses.
# GPR68 = GPR68 (Homo sapiens, UniProt Q15743); assay: Real-time receptor internalization (TR-FRET), concentration-response; assay type: cell-based; design: hIL-2Ra signal peptide (N); expressed in transfected cells; conditions: GPR68, mean, SEM and n
# Sequence of GPR68 (Q15743 2-365 limits assumed): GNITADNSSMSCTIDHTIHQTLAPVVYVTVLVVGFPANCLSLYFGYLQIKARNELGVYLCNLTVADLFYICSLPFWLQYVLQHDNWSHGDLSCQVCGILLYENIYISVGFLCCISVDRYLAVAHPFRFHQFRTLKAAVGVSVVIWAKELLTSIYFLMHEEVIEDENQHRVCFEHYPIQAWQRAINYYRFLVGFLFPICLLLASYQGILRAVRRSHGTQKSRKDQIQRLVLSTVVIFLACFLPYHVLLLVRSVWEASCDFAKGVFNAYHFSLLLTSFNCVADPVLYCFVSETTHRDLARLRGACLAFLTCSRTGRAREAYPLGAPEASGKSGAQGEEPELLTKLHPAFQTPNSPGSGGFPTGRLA
# Summary of the method: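 Doxycycline-induced SNAP-tagged receptor cells had surface receptors labelled with Lumi4-Tb and fluorescein-O-acetic acid added. TR-FRET internalization after peptide addition was recorded for 60 min at 37°C (ex 340, em 520/615 nm). Area under the curve, normalized to plate average, gave concentration-response curves.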
SMILES,Emax (HA-OGR1 (GPR68)) [%],EC50 (HA-OGR1 (GPR68)) [µM],"Emax, Internalization (AUC) (GPR68)","EC50 (GPR68; read-out: pEC50, Internalization (AUC) (converted)) [µM]","pEC50, Internalization (AUC) (GPR68)"
CC[C@H](C)[C@H](NC(=O)[C@H](CCCNC(=N)N)NC(=O)[C@H](C)NC(=O)CNC(=O)[C@H](CCCCN)NC(=O)[C@H](CCCNC(=N)N)NC(=O)[C@@H](NC(=O)[C@H](C)NC(=O)[C@@H]1CSSC[C@H](NC(=O)[C@H](CCSC)NC(=O)[C@@H]2CCCN2C(=O)[C@@H](NC(=O)[C@H](CCC(N)=O)NC(=O)CNC(=O)[C@@H](N)Cc2ccc(O)cc2)C(C)C)C(=O)N[C@@H](CC(=O)O)C(=O)N[C@@H](C)C(=O)NCC(=O)N[C@@H](CCC(=O)O)C(=O)N[C@@H](CCC(N)=O)C(=O)N1)C(C)C)C(N)=O [CART(42-89)_(9-28)] (H-YGQVPMCDAGEQCAVRKGARI-NH2; disulfide 7-13; N-terminus assumed),79.3,3.31,9.4,3.55,
CC(C)C[C@H](NC(=O)[C@@H]1CCCN1C(=O)[C@H](Cc1ccccc1)NC(=O)[C@H](C)NC(=O)[C@H](CCC(=O)O)NC(=O)[C@H](C)NC(=O)[C@H](CO)NC(=O)[C@H](CCC(=O)O)NC(=O)[C@H](CC(N)=O)NC(=O)[C@H](CCC(=O)O)NC(=O)[C@H](C)NC(=O)[C@@H](NC(=O)[C@H](CC(N)=O)NC(=O)[C@@H]1CCCN1C(=O)[C@H](Cc1ccc(O)cc1)NC(=O)[C@@H](NC(=O)[C@H](CCCCN)NC(=O)[C@@H](NC(=O)[C@@H]1CCCN1C(=O)[C@H](CCCNC(=N)N)NC(=O)[C@@H](N)CCCNC(=N)N)C(C)C)C(C)C)C(C)C)C(=O)N[C@@H](CCC(=O)O)C(=O)N[C@@H](Cc1ccccc1)C(=O)O [Corticotropin_(17-40)] (H-RRPVKVYPNVAENESAEAFPLEF-OH; N-terminus and C-terminus assumed),63.3,1.82,4.7,,Response >1uM
